Data reported in article PMC8482776 (ACS Omega, 2021).
Values after ≈ are worked out from the molar mass of the structure shown.

Assays:
Asp. niger (PTCC 5154) = test: Microdilution MIC90, strain I; assay type: cell-based, Aspergillus niger; conditions: filamentous fungi, 48 h at 37 °C, triplicate
[1] = test system: C. parapsilosis (ATCC 22019); test: Microdilution MIC90, strain D; assay type: cell-based; conditions: 24 h
[2] = test system: T. schoenleinii (PTCC 5221); test: Microdilution MIC90, strain N; assay type: cell-based; conditions: Trichophyton schoenleinii, PTCC5221, 48 h
Asp. terreus (PTCC 5023) = test: Microdilution MIC90, strain J; assay type: cell-based, Aspergillus terreus; conditions: Aspergillus terreus, PTCC5023, 48 h, filamentous fungi, 48 h at 37 °C, triplicate
C. glabrata (ATCC 90030) = test: Microdilution MIC90, strain C; assay type: cell-based; conditions: 24 h, yeast, 24 h at 37 °C, triplicate
C. krusei (ATCC 6258) = test: Microdilution MIC90, strain B; assay type: cell-based; conditions: for MIC90: yeast, 24 h at 37 °C, triplicate
[3] = test system: Asp. nidulans (PTCC 5014); test: Microdilution MIC90, strain F; assay type: cell-based, Aspergillus nidulans; conditions: filamentous fungi, 48 h at 37 °C, triplicate
M. canis (PTCC 5069) = test: Microdilution MIC90, strain O; assay type: cell-based; conditions: Microsporum canis, PTCC5069, 48 h
C. albicans (ATCC 10231) = test: Microdilution MIC90, strain A; assay type: cell-based; conditions: strain A; for MIC90: yeast, 24 h at 37 °C, triplicate
T. rubrum (PTCC 5143) = test: Microdilution MIC90, strain K; assay type: cell-based, Trichophyton rubrum; conditions: filamentous fungi, 48 h at 37 °C, triplicate
[4] = test system: Asp. flavus (ATCC 204304); test: Microdilution MIC90, strain G; assay type: cell-based, Aspergillus flavus; conditions: filamentous fungi, 48 h at 37 °C, triplicate
[5] = test system: Asp. fumigatus (PTCC 5009); test: Microdilution MIC90, strain H; assay type: cell-based; conditions: filamentous fungi, 48 h at 37 °C, triplicate
[6] = test system: T. mentagrophytes (PTCC 5054); test: Microdilution MIC90, strain M; assay type: cell-based; conditions: Trichophyton mentagrophytes, PTCC5054, 48 h
[7] = test system: C. tropicalis (PTCC 5028); test: Microdilution MIC90, strain E; assay type: cell-based; conditions: 24 h
[8] = test system: Microsporum gypseum (PTCC 5070); test: Microdilution MIC90, strain L; assay type: cell-based; conditions: filamentous fungi, 48 h at 37 °C, triplicate
[9] = Aspergillus niger, PTCC5154, 48 h
[10] = Aspergillus nidulans, PTCC5014, 48 h
[11] = Trichophyton rubrum, PTCC5143, 48 h
[12] = Aspergillus flavus, ATCC204304, 48 h
[13] = Aspergillus fumigatus, PTCC5009, 48 h

Row | MIC90 (Asp. niger (PTCC 5154); [9]) [µg/mL] | MIC90 [1] [µg/mL] | MIC90 [2] [µg/mL] | MIC90 (Asp. terreus (PTCC 5023)) [µg/mL] | MIC90 (C. glabrata (ATCC 90030)) [µg/mL] | MIC90 (C. krusei (ATCC 6258); 24 h) [µg/mL] | MIC90 [3, 10] [µg/mL] | MIC90 [3] [μg·mL^–1] | MIC90 (M. canis (PTCC 5069)) [µg/mL] | MIC90 (C. albicans (ATCC 10231); 24 h) [µg/mL] | MIC90 (T. rubrum (PTCC 5143); [11]) [µg/mL] | MIC90 [4, 12] [µg/mL] | MIC90 [4] [μg·mL^–1] | MIC90 [5, 13] [µg/mL] | MIC90 [6] [µg/mL] | MIC90 [7] [µg/mL] | SMILES | also measured
1 | 16 (≈ 31.8 µM) | 8 (≈ 15.9 µM) | 8 (≈ 15.9 µM) | 32 (≈ 63.5 µM) | 32 (≈ 63.5 µM) | 16 (≈ 31.8 µM) | 2 to 4 (≈ 3.97 to 7.94 µM) | 2 | 16 (≈ 31.8 µM) | 8 (≈ 15.9 µM) | 16 (≈ 31.8 µM) | 2 to 4 (≈ 3.97 to 7.94 µM) | 2 | 8 (≈ 15.9 µM) | 16 (≈ 31.8 µM) | 8 (≈ 15.9 µM) | Cc1cccc(NC(=O)Nc2nnc(SCC(O)(Cn3cncn3)c3ccc(F)cc3F)s2)c1 (stereo not shown) [Compound 8i, 1-(5-((2-(2,4-Difluorophenyl)-2-hydroxy-3-(1H-1,2,4-triazol-1-yl)propyl)thio)-1,3,4-thiadiazol-2-yl)-3-(m-tolyl)urea] | –
2 | 2 to 4 (≈ 3.82 to 7.63 µM) | 8 (≈ 15.3 µM) | 8 (≈ 15.3 µM) | 8 (≈ 15.3 µM) | – | 1 to 16 (≈ 1.91 to 30.5 µM) | 16 (≈ 30.5 µM) | – | 2 (≈ 3.82 µM) | 32 (≈ 61.1 µM) | 2 (≈ 3.82 µM) | 8 (≈ 15.3 µM) | – | 2 to 4 (≈ 3.82 to 7.63 µM) | 16 (≈ 30.5 µM) | 32 (≈ 61.1 µM) | O=C(Nc1ccc(Cl)cc1)Nc1nnc(SCC(O)(Cn2cncn2)c2ccc(F)cc2F)s1 (stereo not shown) [Compound 8a, 1-(4-Chlorophenyl)-3-(5-((2-(2,4-difluorophenyl)-2-hydroxy-3-(1H-1,2,4-triazol-1-yl)propyl)thio)-1,3,4-thiadiazol-2-yl)urea] | MIC90 (Asp. niger (PTCC 5154)): 4 μg·mL^–1; MIC90 (C. krusei (ATCC 6258)): 1 μg·mL^–1; MIC90 [5]: 1 μg·mL^–1
3 | – | – | – | – | – | – | 2 to 4 (≈ 3.97 to 7.94 µM) | 4 | – | – | – | 8 (≈ 15.9 µM) | – | – | – | – | Cc1ccccc1NC(=O)Nc1nnc(SCC(O)(Cn2cncn2)c2ccc(F)cc2F)s1 (stereo not shown) [Compound 8n, 1-(5-((2-(2,4-Difluorophenyl)-2-hydroxy-3-(1H-1,2,4-triazol-1-yl)propyl)thio)-1,3,4-thiadiazol-2-yl)-3-(o-tolyl)urea] | –
4 | 32 (≈ 57.3 µM) | 4 (≈ 7.16 µM) | 16 (≈ 28.7 µM) | 8 (≈ 14.3 µM) | – | – | 8 (≈ 14.3 µM) | – | 16 (≈ 28.7 µM) | 32 (≈ 57.3 µM) | 2 to 4 (≈ 3.58 to 7.16 µM) | 8 (≈ 14.3 µM) | – | 32 (≈ 57.3 µM) | 16 (≈ 28.7 µM) | 16 (≈ 28.7 µM) | O=C(Nc1ccc(Cl)c(Cl)c1)Nc1nnc(SCC(O)(Cn2cncn2)c2ccc(F)cc2F)s1 (stereo not shown) [Compound 8q, 1-(3,4-Dichlorophenyl)-3-(5-((2-(2,4-difluorophenyl)-2-hydroxy-3-(1H-1,2,4-triazol-1-yl)propyl)thio)-1,3,4-thiadiazol-2-yl)urea] | MIC90 (T. rubrum (PTCC 5143)): 4 μg·mL^–1
5 | 16 (≈ 28.7 µM) | 4 (≈ 7.17 µM) | 16 (≈ 28.7 µM) | 16 (≈ 28.7 µM) | 16 (≈ 28.7 µM) | – | 2 to 4 (≈ 3.59 to 7.17 µM) | 4 | 16 (≈ 28.7 µM) | – | 8 (≈ 14.3 µM) | 2 to 4 (≈ 3.59 to 7.17 µM) | 2 | 16 (≈ 28.7 µM) | 32 (≈ 57.4 µM) | 16 (≈ 28.7 µM) | O=C(Nc1nnc(SCC(O)(Cn2cncn2)c2ccc(F)cc2F)s1)Nc1ccccc1C(F)(F)F (stereo not shown) [Compound 8k, 1-(5-((2-(2,4-Difluorophenyl)-2-hydroxy-3-(1H-1,2,4-triazol-1-yl)propyl)thio)-1,3,4-thiadiazol-2-yl)-3-(2-(trifluoromethyl)phenyl)urea] | –
6 | 16 (≈ 31.8 µM) | 8 (≈ 15.9 µM) | 8 (≈ 15.9 µM) | 16 (≈ 31.8 µM) | – | 0.5 (≈ 0.993 µM) | 2 to 4 (≈ 3.97 to 7.94 µM) | 4 | 16 (≈ 31.8 µM) | 0.5 (≈ 0.993 µM) | 8 (≈ 15.9 µM) | 8 (≈ 15.9 µM) | – | 16 (≈ 31.8 µM) | 32 (≈ 63.5 µM) | 16 (≈ 31.8 µM) | Cc1ccc(NC(=O)Nc2nnc(SCC(O)(Cn3cncn3)c3ccc(F)cc3F)s2)cc1 (stereo not shown) [Compound 8e, 1-(5-((2-(2,4-Difluorophenyl)-2-hydroxy-3-(1H-1,2,4-triazol-1-yl)propyl)thio)-1,3,4-thiadiazol-2-yl)-3-(p-tolyl)urea] | MIC90 [8]: 2 μg·mL^–1; fold greater potency than that of FLC (C. krusei (ATCC 6258); from MIC values): 32 fold; MIC90 (C. krusei (ATCC 6258)): 1 μg·mL^–1; fold greater potency than that of FLC (C. albicans (ATCC 10231); from MIC values): 32 fold; MIC90 (C. albicans (ATCC 10231)): 1 μg·mL^–1
7 | 32 (≈ 57.4 µM) | 8 (≈ 14.3 µM) | 16 (≈ 28.7 µM) | 32 (≈ 57.4 µM) | 32 (≈ 57.4 µM) | 32 (≈ 57.4 µM) | 16 (≈ 28.7 µM) | – | 16 (≈ 28.7 µM) | – | 8 (≈ 14.3 µM) | 16 (≈ 28.7 µM) | – | 16 (≈ 28.7 µM) | 16 (≈ 28.7 µM) | 16 (≈ 28.7 µM) | O=C(Nc1cccc(C(F)(F)F)c1)Nc1nnc(SCC(O)(Cn2cncn2)c2ccc(F)cc2F)s1 (stereo not shown) [Compound 8j, 1-(5-((2-(2,4-Difluorophenyl)-2-hydroxy-3-(1H-1,2,4-triazol-1-yl)propyl)thio)-1,3,4-thiadiazol-2-yl)-3-(3-(trifluoromethyl)phenyl)urea] | –
8 | – | 8 (≈ 15.3 µM) | – | – | – | – | 2 to 4 (≈ 3.82 to 7.63 µM) | 4 | – | 4 (≈ 7.63 µM) | 2 (≈ 3.82 µM) | 2 to 4 (≈ 3.82 to 7.63 µM) | 4 | – | – | – | O=C(Nc1cccc(Cl)c1)Nc1nnc(SCC(O)(Cn2cncn2)c2ccc(F)cc2F)s1 (stereo not shown) [Compound 8f, 1-(3-Chlorophenyl)-3-(5-((2-(2,4-difluorophenyl)-2-hydroxy-3-(1H-1,2,4-triazol-1-yl)propyl)thio)-1,3,4-thiadiazol-2-yl)urea] | MIC90 [8]: 4 μg·mL^–1
9 | 64 (≈ 113 µM) | 8 (≈ 14.1 µM) | 32 (≈ 56.3 µM) | 32 (≈ 56.3 µM) | 32 (≈ 56.3 µM) | – | 2 to 4 (≈ 3.52 to 7.04 µM) | 4 | 64 (≈ 113 µM) | 32 (≈ 56.3 µM) | 4 (≈ 7.04 µM) | 8 (≈ 14.1 µM) | – | 64 (≈ 113 µM) | 32 (≈ 56.3 µM) | 32 (≈ 56.3 µM) | O=C(Nc1ccc(Br)cc1)Nc1nnc(SCC(O)(Cn2cncn2)c2ccc(F)cc2F)s1 (stereo not shown) [Compound 8d, 1-(4-Bromophenyl)-3-(5-((2-(2,4-difluorophenyl)-2-hydroxy-3-(1H-1,2,4-triazol-1-yl)propyl)thio)-1,3,4-thiadiazol-2-yl)urea] | –
10 | – | 8 (≈ 15.3 µM) | – | – | – | – | 8 (≈ 15.3 µM) | – | – | – | – | 2 to 4 (≈ 3.82 to 7.63 µM) | 4 | – | – | – | O=C(Nc1nnc(SCC(O)(Cn2cncn2)c2ccc(F)cc2F)s1)Nc1ccccc1Cl (stereo not shown) [Compound 8l, 1-(2-Chlorophenyl)-3-(5-((2-(2,4-difluorophenyl)-2-hydroxy-3-(1H-1,2,4-triazol-1-yl)propyl)thio)-1,3,4-thiadiazol-2-yl)urea] | –
11 | – | 8 (≈ 15.2 µM) | 16 (≈ 30.4 µM) | 16 (≈ 30.4 µM) | 32 (≈ 60.9 µM) | – | 8 (≈ 15.2 µM) | – | 16 (≈ 30.4 µM) | – | 16 (≈ 30.4 µM) | 2 to 4 (≈ 3.81 to 7.61 µM) | 4 | – | 16 (≈ 30.4 µM) | 32 (≈ 60.9 µM) | O=C(Nc1nnc(SCC(O)(Cn2cncn2)c2ccc(F)cc2F)s1)Nc1ccc(F)cc1F (stereo not shown) [Compound 8p, 1-(2,4-Difluorophenyl)-3-(5-((2-(2,4-difluorophenyl)-2-hydroxy-3-(1H-1,2,4-triazol-1-yl)propyl)thio)-1,3,4-thiadiazol-2-yl)urea] | MIC90 [8]: 4 μg·mL^–1
12 | 8 (≈ 15.4 µM) | 4 (≈ 7.7 µM) | 32 (≈ 61.6 µM) | 16 (≈ 30.8 µM) | – | 8 (≈ 15.4 µM) | 2 to 4 (≈ 3.85 to 7.7 µM) | 4 | 32 (≈ 61.6 µM) | 16 (≈ 30.8 µM) | 2 (≈ 3.85 µM) | 8 (≈ 15.4 µM) | – | 16 (≈ 30.8 µM) | 16 (≈ 30.8 µM) | 16 (≈ 30.8 µM) | COc1cccc(NC(=O)Nc2nnc(SCC(O)(Cn3cncn3)c3ccc(F)cc3F)s2)c1 (stereo not shown) [Compound 8h, 1-(5-((2-(2,4-Difluorophenyl)-2-hydroxy-3-(1H-1,2,4-triazol-1-yl)propyl)thio)-1,3,4-thiadiazol-2-yl)-3-(3-methoxyphenyl)urea] | –
13 | 32 (≈ 56.3 µM) | 16 (≈ 28.1 µM) | 64 (≈ 113 µM) | 16 (≈ 28.1 µM) | 16 (≈ 28.1 µM) | – | 8 (≈ 14.1 µM) | – | 64 (≈ 113 µM) | 32 (≈ 56.3 µM) | 2 to 4 (≈ 3.52 to 7.04 µM) | 8 (≈ 14.1 µM) | – | 32 (≈ 56.3 µM) | 32 (≈ 56.3 µM) | 8 (≈ 14.1 µM) | O=C(Nc1nnc(SCC(O)(Cn2cncn2)c2ccc(F)cc2F)s1)Nc1ccccc1Br (stereo not shown) [Compound 8m, 1-(2-Bromophenyl)-3-(5-((2-(2,4-difluorophenyl)-2-hydroxy-3-(1H-1,2,4-triazol-1-yl)propyl)thio)-1,3,4-thiadiazol-2-yl)urea] | MIC90 (T. rubrum (PTCC 5143)): 4 μg·mL^–1
